Source: patent US20240158393A1, “PYRIDONE COMPOUNDS AND METHODS OF USE” (Exelixis, Inc., priority 2021, published 2024)
pIC50: −log10 of the molar value.

Key:
Human KDR = target: T1, Human KDR (Homo sapiens, UniProt P35968); test: Human KDR kinase assay (33P radiometric / HTRF KinEase); format: biochemical; conditions: protocols of Examples B-1 and/or B-2
T1 construct: Human KDR (residues K790-V1356, 55 nM); purchased Eurofins Pharma Discovery Services UK Limited (KinaseProfiler, B-1) and/or CarnaBio (B-2)
T1 sequence (P35968 790-1356): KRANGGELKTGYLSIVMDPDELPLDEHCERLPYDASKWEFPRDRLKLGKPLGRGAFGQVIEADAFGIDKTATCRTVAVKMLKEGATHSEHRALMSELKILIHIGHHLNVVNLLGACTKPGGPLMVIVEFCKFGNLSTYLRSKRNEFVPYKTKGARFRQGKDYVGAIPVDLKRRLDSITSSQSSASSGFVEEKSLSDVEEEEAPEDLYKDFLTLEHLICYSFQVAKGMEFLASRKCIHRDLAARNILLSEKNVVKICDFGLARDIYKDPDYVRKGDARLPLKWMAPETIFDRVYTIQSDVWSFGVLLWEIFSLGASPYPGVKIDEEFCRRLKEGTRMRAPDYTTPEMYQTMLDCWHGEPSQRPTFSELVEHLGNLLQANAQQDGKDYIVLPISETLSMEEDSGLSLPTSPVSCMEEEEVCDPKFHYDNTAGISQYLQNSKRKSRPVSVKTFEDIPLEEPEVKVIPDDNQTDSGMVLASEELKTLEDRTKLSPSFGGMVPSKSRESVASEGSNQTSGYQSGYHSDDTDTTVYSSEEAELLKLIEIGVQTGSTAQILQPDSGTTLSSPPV
Summary of the method: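 Radiometric: KDR K790-V1356 (55 nM), MOPS pH 7.0, myelin basic protein, 10 μM [γ-33P]ATP, 40 min at room temperature, filter-bound 33P counted; nine half-log doses, top 1 μM. HTRF: KDR 790-1356, 1 μM biotinylated peptide, ATP at Km (4.0 μM), 40 min, 10 doses. IC50 from logistic fits.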

Human Axl = target: T2, Human Axl (Homo sapiens, UniProt P30530); test: Human AXL kinase assay (33P radiometric / HTRF KinEase); format: biochemical; conditions: protocols of Examples A-1 and/or A-2
T2 construct: Human AXL (residues 464-885)
T2 sequence (P30530 1-894 Q764R): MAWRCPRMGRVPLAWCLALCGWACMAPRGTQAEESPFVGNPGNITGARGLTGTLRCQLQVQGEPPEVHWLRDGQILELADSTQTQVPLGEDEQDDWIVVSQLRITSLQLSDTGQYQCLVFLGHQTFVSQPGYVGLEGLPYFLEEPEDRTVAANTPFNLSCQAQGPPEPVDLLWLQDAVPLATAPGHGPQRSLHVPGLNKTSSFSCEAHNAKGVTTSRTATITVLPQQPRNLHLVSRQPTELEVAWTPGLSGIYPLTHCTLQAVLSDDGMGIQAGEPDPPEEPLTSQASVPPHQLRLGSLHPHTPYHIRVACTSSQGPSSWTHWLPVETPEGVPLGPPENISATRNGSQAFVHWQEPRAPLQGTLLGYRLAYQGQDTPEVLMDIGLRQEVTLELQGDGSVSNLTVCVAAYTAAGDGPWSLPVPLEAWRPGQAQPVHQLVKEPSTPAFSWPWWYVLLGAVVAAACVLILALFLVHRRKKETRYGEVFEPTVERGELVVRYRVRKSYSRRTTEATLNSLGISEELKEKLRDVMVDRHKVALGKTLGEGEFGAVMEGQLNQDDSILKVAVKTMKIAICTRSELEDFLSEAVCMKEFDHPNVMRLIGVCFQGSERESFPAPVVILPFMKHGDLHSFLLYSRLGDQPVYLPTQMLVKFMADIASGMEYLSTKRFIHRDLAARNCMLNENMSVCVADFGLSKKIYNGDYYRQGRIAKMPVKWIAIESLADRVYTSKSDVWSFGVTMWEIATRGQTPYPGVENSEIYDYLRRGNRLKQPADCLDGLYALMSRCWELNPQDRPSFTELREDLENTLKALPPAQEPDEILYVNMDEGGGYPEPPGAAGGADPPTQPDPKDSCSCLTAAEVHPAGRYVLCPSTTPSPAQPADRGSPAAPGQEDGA

Compound	pIC50 (Human KDR)	pIC50 (Human Axl)
COc1cc2nccc(Oc3ccc(NC(=O)c4c(C)n(C)c(C)c(C5CC5)c4=O)cc3)c2nc1OC [Compound 48, 5-Cyclopropyl-N-[4-[(6,7-dimethoxy-1,5-naphthyridin-4-yl)oxy]phenyl]-1,2,6-trimethyl-4-oxopyridine-3-carboxamide]	< 6.52	≥ 7.00
COc1ccc2nccc(Oc3ccc(NC(=O)c4cnc(C)c(C5=CCCCC5)c4O)cc3F)c2n1 [Compound 1-6, 5-(Cyclohexen-1-yl)-N-[3-fluoro-4-[(6-methoxy-1,5-naphthyridin-4-yl)oxy]phenyl]-4-hydroxy-6-methylpyridine-3-carboxamide]	6.52 to 7.00	≥ 7.00
COc1cc2nccc(Oc3ccc(NC(=O)c4c(C)n(C)c(C)c(N5CCCCC5)c4=O)cc3F)c2nc1OC [Compound 90, N-[4-[(6,7-dimethoxy-1,5-naphthyridin-4-yl)oxy]-3-fluorophenyl]-1,2,6-trimethyl-4-oxo-5-piperidin-1-ylpyridine-3-carboxamide]	6.52 to 7.00	≥ 7.00
COc1cc2nccc(Oc3ccc(NC(=O)c4c5n(cc(C6=CCOCC6)c4=O)CCOC5)cc3)c2nc1OC [Compound G1-8, 7-(3,6-Dihydro-2H-pyran-4-yl)-N-[4-[(6,7-dimethoxy-1,5-naphthyridin-4-yl)oxy]phenyl]-8-oxo-3,4-dihydro-1H-pyrido[2,1-c][1,4]oxazine-9-carboxamide]	< 6.52	≥ 7.00
COc1cc2nccc(Oc3ccc(NC(=O)c4c(C)ccn(C(C)C)c4=O)cc3F)c2nc1OC [Compound 38, N-[4-[(6,7-Dimethoxy-1,5-naphthyridin-4-yl)oxy]-3-fluorophenyl]-4-methyl-2-oxo-1-propan-2-ylpyridine-3-carboxamide]	6.52 to 7.00	6.52 to 7.00
COc1cc2nccc(Oc3ccc(NC(=O)c4c5n(c(C)c(C6=CCCC6)c4=O)CCOC5)cc3)c2nc1OC [Compound 99, 7-(Cyclopenten-1-yl)-N-[4-[(6,7-dimethoxy-1,5-naphthyridin-4-yl)oxy]phenyl]-6-methyl-8-oxo-3,4-dihydro-1H-pyrido[2,1-c][1,4]oxazine-9-carboxamide]	< 6.52	≥ 7.00
COc1cc2nccc(Oc3ccc(NC(=O)c4c(C)n(C)c(C)c(C#N)c4=O)cc3)c2nc1OC [Compound 82, 5-Cyano-N-[4-[(6,7-dimethoxy-1,5-naphthyridin-4-yl)oxy]phenyl]-1,2,6-trimethyl-4-oxopyridine-3-carboxamide]	< 6.52	< 6.52
COc1cc2nccc(Oc3ccc(NC(=O)c4c5n(cc(C6=CCCCC6)c4=O)CCOC5)cc3)c2nc1OC [Compound G1-5, 7-(Cyclohexen-1-yl)-N-[4-[(6,7-dimethoxy-1,5-naphthyridin-4-yl)oxy]phenyl]-8-oxo-3,4-dihydro-1H-pyrido[2,1-c][1,4]oxazine-9-carboxamide]	< 6.52	≥ 7.00
COc1cc2nccc(Oc3ccc(NC(=O)c4c(C)n(C)c(C)c(C5CC5)c4=O)cc3F)c2nc1OC [Compound 46, 5-Cyclopropyl-N-[4-[(6,7-dimethoxy-1,5-naphthyridin-4-yl)oxy]-3-fluorophenyl]-1,2,6-trimethyl-4-oxopyridine-3-carboxamide]	< 6.52	6.52 to 7.00
COc1cc2nccc(Oc3ccc(NC(=O)c4c(C)c(Br)c(C)n(C5CCCC5)c4=O)cc3F)c2nc1OC [Compound 22, 5-Bromo-1-cyclopentyl-N-[4-[(6,7-dimethoxy-1,5-naphthyridin-4-yl)oxy]-3-fluorophenyl]-4,6-dimethyl-2-oxopyridine-3-carboxamide]	6.52 to 7.00	≥ 7.00
COCCOc1cc2nccc(Oc3ccc(NC(=O)c4c(O)c(C5=CCOCC5)c(C)[n+](C)c4C)cc3F)c2nc1OC [Compound 44, 5-(3,6-Dihydro-2H-pyran-4-yl)-N-[3-fluoro-4-[[6-methoxy-7-(2-methoxyethoxy)-1,5-naphthyridin-4-yl]oxy]phenyl]-1,2,6-trimethyl-4-oxopyridine-3-carboxamide]	6.52 to 7.00	≥ 7.00

The next lines start with the values.

pIC50 (Human KDR)	pIC50 (Human Axl)	Compound
≥ 7.00	≥ 7.00	COc1cc2nccc(Oc3ccc(NC(=O)c4cnc(C)c(C5=CCCCC5)c4O)cc3F)c2cc1OC [Compound 23, 5-(Cyclohexen-1-yl)-N-[4-(6,7-dimethoxyquinolin-4-yl)oxy-3-fluorophenyl]-4-hydroxy-6-methylpyridine-3-carboxamide]
≥ 7.00	≥ 7.00	COc1cc2nccc(Oc3ccc(NC(=O)c4cnc(C)c(/C=C/C(C)(C)C)c4O)cc3F)c2nc1OC [Compound 27, N-[4-[(6,7-Dimethoxy-1,5-naphthyridin-4-yl)oxy]-3-fluorophenyl]-5-[(E)-3,3-dimethylbut-1-enyl]-4-hydroxy-6-methylpyridine-3-carboxamide]
≥ 7.00	≥ 7.00	COc1cc2nccc(Oc3ccc(NC(=O)c4cnc(C)c(/C=C/CC(C)C)c4O)cc3F)c2nc1OC [Compound 28, N-[4-[(6,7-Dimethoxy-1,5-naphthyridin-4-yl)oxy]-3-fluorophenyl]-4-hydroxy-6-methyl-5-[(E)-4-methylpent-1-enyl]pyridine-3-carboxamide]
≥ 7.00	≥ 7.00	COc1cc2nccc(Oc3ccc(NC(=O)c4cnc(C)c(/C=C/C5CCCC5)c4O)cc3F)c2nc1OC [Compound 25, 5-[(E)-2-Cyclopentylethenyl]-N-[4-[(6,7-dimethoxy-1,5-naphthyridin-4-yl)oxy]-3-fluorophenyl]-4-hydroxy-6-methylpyridine-3-carboxamide]
6.52 to 7.00	< 6.52	COc1cc2nccc(Oc3ccc(NC(=O)c4c(C)nc(C)c(C#N)c4O)cc3F)c2nc1OC [Compound 87, 5-Cyano-N-[4-[(6,7-dimethoxy-1,5-naphthyridin-4-yl)oxy]-3-fluorophenyl]-4-hydroxy-2,6-dimethylpyridine-3-carboxamide]
≥ 7.00	≥ 7.00	COc1ccc2nccc(Oc3ccc(NC(=O)c4cnc(C)c(C5=CCCC5)c4O)cc3F)c2n1 [Compound 1-7, 5-(Cyclopenten-1-yl)-N-[3-fluoro-4-[(6-methoxy-1,5-naphthyridin-4-yl)oxy]phenyl]-4-hydroxy-6-methylpyridine-3-carboxamide]
≥ 7.00	≥ 7.00	COc1ccc2nccc(Oc3ccc(NC(=O)c4cnc(C)c(C5=CCOCC5)c4O)cc3F)c2n1 [Compound 1-5, 5-(3,6-Dihydro-2H-pyran-4-yl)-N-[3-fluoro-4-[(6-methoxy-1,5-naphthyridin-4-yl)oxy]phenyl]-4-hydroxy-6-methylpyridine-3-carboxamide]
≥ 7.00	≥ 7.00	COc1cc2nccc(Oc3ccc(NC(=O)c4cnc(C)c(C5=CCCC5)c4O)cc3F)c2cc1OC [Compound 18, 5-(Cyclopenten-1-yl)-N-[4-(6,7-dimethoxyquinolin-4-yl)oxy-3-fluorophenyl]-4-hydroxy-6-methylpyridine-3-carboxamide]
≥ 7.00	≥ 7.00	COCCOc1cc2nccc(Oc3ccc(NC(=O)c4cnc(C)c(/C=C/C5CCCC5)c4O)cc3F)c2nc1OC [Compound 36, 5-[(E)-2-Cyclopentylethenyl]-N-[3-fluoro-4-[[6-methoxy-7-(2-methoxyethoxy)-1,5-naphthyridin-4-yl]oxy]phenyl]-4-hydroxy-6-methylpyridine-3-carboxamide]
≥ 7.00	≥ 7.00	COc1cnc2c(Oc3ccc(NC(=O)c4c(C)nc(C)c(C(C)C)c4O)cc3F)ccnc2c1 [Compound 32, N-[3-Fluoro-4-[(7-methoxy-1,5-naphthyridin-4-yl)oxy]phenyl]-4-hydroxy-2,6-dimethyl-5-propan-2-ylpyridine-3-carboxamide]
≥ 7.00	≥ 7.00	COc1cc2nccc(Oc3ccc(NC(=O)c4cnc(C)c(C5=CCOCC5)c4O)cc3)c2cc1OC [Compound 17, 5-(3,6-Dihydro-2H-pyran-4-yl)-N-[4-(6,7-dimethoxyquinolin-4-yl)oxyphenyl]-4-hydroxy-6-methylpyridine-3-carboxamide]
≥ 7.00	≥ 7.00	COc1cc2nccc(Oc3ccc(NC(=O)c4cn(CCF)c(C)c(C5CCCC5)c4=O)cc3F)c2nc1OC [Compound 13, 5-Cyclopentyl-N-[4-[(6,7-dimethoxy-1,5-naphthyridin-4-yl)oxy]-3-fluorophenyl]-1-(2-fluoroethyl)-6-methyl-4-oxopyridine-3-carboxamide]
